Reference: patent publication US12162918B2, “Periostin compounds for the treatment of haematological complications” (Chemotherapeutisches Forschungsinstitut Georg-Speyer-Haus, priority 2018, dated 2024)

Columns and labels:
wildtype mice = assay: 5-fluorouracil-induced hematopoietic stress in warfarin-treated mice; type: in vivo
Procedure: (§1) 0.5 mg/kg/d or 0.05 mg/kg/d of warfarin, resuspended in phosphate-buffered saline was administered to mice via subcutaneously implanted osmotic minipumps (ALZET minipumps, Cupertino, CA). The osmotic minipumps were changed after 14 days (if the experiment went beyond 14 days of treatment). Sham operated (skin incision and suture) mice served as controls. Warfarin treatment continued for 10-14 days. In the xenotransplantation experiments the mice were treated with warfarin via the drinking water (or normal drinking water) at a dose of 0.72 mg/100 ml for a total of 3 days a week (Pfeilschifter et al., 2011).
5-fluorouracil was intraperitoneally injected every week at a dose of 75 mg/kg for a total of 4 doses or as a one time dose of 200 mg/kg. Recombinant mouse periostin (R&D Systems, Minneapolis, MN, cat. no. 2955-F2), produced in the Sf21 (baculovirus)-derived insect cell line, was administered intravenously at a dose of 2-4 μg per day and vitamin K was given at a dose of 15 mg/kg by oral gavage for four consecutive days.

periostin knockout mice = assay: Warfarin treatment of periostin knockout mice; type: in vivo
Excerpt: (§2) 7 to 10 week old C57BL6/N (CD45.2) or SJL (CD45.1; B6.SJL-Ptprca Pepcb/BoyJ), Col1a1 2.3 kb-GFP (kind gift from D. Rowe), Nestin-GFP (Mignone et al., 2004) and periostin knockout mice (kind gift from Juerg Huelsken) were used for these experiments. NOD SCID interleukin (IL)-2 receptor γ deficient (NSG) mice were purchased from Charles River Laboratories (Sulzfeld, Germany) and bred in our facility. All animal studies were approved by the local German government (Regierungspräsidium Darmstadt) in Hessen, Germany, and by the Institutional Animal Care and Use Committee (IACUC) of Boston University.
as §1
5-fluorouracil was intraperitoneally injected every week at a dose of 75 mg/kg for a total of 4 doses or as a one time dose of 200 mg/kg. […]

[1] = test system: Nestin-GFP or Col2.3 kb GFP mice; assay: Enumeration of Nestin-GFP+ MSC and Col2.3 kb GFP+ osteoblastic cells in bones; type: in vivo; conditions: warfarin 14 days
Excerpt: as §2, §1

HSC = assay: Competitive, serial and limiting dilution transplantation assays of whole bone marrow; type: in vivo, mice
Procedure: (§3) SJL (CD45.1) donor mice were treated with vehicle or warfarin, euthanized and long bones were flushed, followed by RBC lysis (Life Technologies, Darmstadt, Germany). For competitive transplantation 2×10^6 total BM cells from SJL mice were co-transplanted with 1×10^6 CD45.2+ BM competitor cells into lethally irradiated (900 cGy) C57BL/6N (CD45.2+) recipient mice. For serial transplantation 2×10^6 total CD45.1+ BM cells were transplanted into lethally irradiated C57BL/6N recipient mice. Cell engraftment and chimerism were assessed by flow cytometry of peripheral blood leukocytes for CD45.1 and CD45.2 after 4, 8, 12 and 16 weeks post transplantation. In the limiting dilution experiment we treated primary CD45.1+ donor mice with vehicle or warfarin for 14 days and, consequently, transplanted 5×10^5, 12.5×10^4, 6×10^4 and 1.5×10^4 pooled BM cells into 5 CD45.2+ recipients per group adding 5×10^5 CD45.2+ supporter cells. In indicated experiments we transplanted 5,000 or 10,000 sorted CD45.1+ LKS cells from mice treated with vehicle or warfarin plus 1×10^6 CD45.2+ total BM supporter cells into CD45.2+ recipient mice.
Differences in survival were assessed by Kaplan-Meier non-parametric estimates (Log-rank test) and between groups by student's t-test. The data were presented as mean±s.d. We used L-Calc software (Stemcell Technologies, Vancouver, Canada) to calculate HSC frequency by Poisson statistics. P values≤0.05 were accepted as significant.

Lin− hematopoietic cells = assay: Direct effect of warfarin on Lin− hematopoietic cells in vitro; type: cell-based, mice
Procedure: Concentrations of drugs for in vitro use were 2 μM for warfarin, 2 μg/ml for periostin, 5 μM for the AKT inhibitor MK-2206 (Selleck Chemicals, Houston, TX) and cilengitide (Selleck Chemicals, Houston, TX, Cat. No. #S7077) was used at 0.05 μM. Phosphate buffered saline served as the vehicle control.
To test the direct effect of warfarin on hematopoietic cells 100,000 Lin− cells were cultured in 2 μM vehicle or warfarin in the absence of stroma cells for a total of 7 days. For the in vitro rescue experiment with periostin stroma cells were grown in warfarin for 14 days, before vehicle or periostin were added.

CD45.1+ LKS cells = assay: Transplantation of sorted LKS or Lin− cells from warfarin-treated mice into untreated recipients; type: in vivo
Procedure: as §3

human CD34+ cells = assay: Intrafemoral cotransplantation of human CD34+ cells with treated human stroma cells into NSG mice; type: in vivo
Procedure: For the intrafemoral co-transplantation experiments 0.8×10^5 human CD34+ cells or 1×10^5 Lin− cells from Actin-DsRed reporter mice were mixed with 5×10^5 human or murine stroma cells which had been expanded in vitro and pretreated with vehicle or 2 μM warfarin for 14 days. The human stromal cells had been obtained via flushing of discarded bones from the orthopedic operating room, as approved of by the local ethics committee.
We assessed the complete blood count of vehicle or warfarin-treated mice using a complete blood count analyzer (Scil Vet ABC, Gurnee, IL). Peripheral blood and bone marrow samples were stained with antibodies for flow cytometry, which was performed on a BD LSR Fortessa (BD Biosciences, Heidelberg, Germany). The lineage antibody cocktail contained antibodies to B220, CD5, Ter119, F4/80 and CD11b. Engraftment of human cells in NSG mice was assessed using anti-human CD45 (BD Biosciences, San José, CA).
Stroma and hematopoietic cells (purified for CD34+) were taken from the iliac crest of healthy donors of allogeneic bone marrow.

Lin− and LKS cells = assay: Homing assay to a warfarin-treated BMM; type: in vivo, mice; conditions: 18 hours after transplantation
Procedure: In the homing assay, we intravenously transplanted 9×10^6 Actin DsRed+ whole BM cells into C57BL/6N mice treated with vehicle or warfarin for 14 days. 18 hours later, we analyzed BM and spleen cells of recipient mice for the presence of DsRed+ LKS cells.

F4/80+ macrophages = assay: Macrophage coculture assay and periostin in macrophage conditioned medium; type: cell-based, mice
Excerpt: For the macrophage coculture assay F4/80+ macrophages were sorted from the bone marrow of control or warfarin-treated mice, plated and cocultured with 20,000-30,000 Lin− BM cells as from the following day.

CC(=O)CC(c1ccccc1)c1c(O)c2ccccc2oc1=O (centres unmarked) [warfarin]
leukocyte counts after 5-fluorouracil (wildtype mice; 7 days after one-time dose of 200 mg/kg 5-fluorouracil, P=0.03): lower
survival (wildtype mice; higher dose (0.5 mg/kg), 75 mg/kg 5-fluorouracil days 0, 7, 14, 21, P=0.0004 Log-rank): similarly shortened
survival (wildtype mice; lower dose (0.05 mg/kg), 75 mg/kg 5-fluorouracil days 0, 7, 14, 21, P=0.02 Log-rank): similarly shortened
leukocyte counts or survival in periostin knockout mice after 5-fluorouracil (periostin knockout mice; repetitive doses of 75 mg/kg 5-fluorouracil): did not lead to lower leukocyte counts or decreased survival
total leukocytes or monocytes in periostin knockout mice (periostin knockout mice; vs control periostin knockout mice): did not lead to a decrease
number of Col2.3 kb+ osteoblastic cells [1]: n.s. and no reduction
number of Nestin+ MSC ([1]; P=0.047): significant reduction
function of whole bone marrow cells in serial transplantation (HSC; P=0.004 after tertiary transplantation): impaired function
function of whole bone marrow cells in competitive transplantation (HSC; P=0.04 after 16 weeks): impaired function
reduction of functional HSC in limiting dilution assay (HSC; warfarin-treated vs control mice, P=0.0006, L-Calc): 7.6 fold
number of colonies from Lin− cells previously exposed in vitro (Lin− hematopoietic cells; 2 μM warfarin or vehicle for 7 days, scored day 10): did not yield significantly different numbers of colonies
effect on phenotypical Lin− or LKS cells, annexin V+ dead cells, cycling or myeloid cells (Lin− hematopoietic cells; Lin− cells cultured in warfarin-containing media): no direct effect
percentage of Lin− cells in the S/G2/M phases after transplantation into an untreated BMM (CD45.1+ LKS cells; Lin− cells from a warfarin-treated BMM, P=0.04): increase
percentage of CD45.1+ donor cells in peripheral blood of recipients (CD45.1+ LKS cells; equal numbers of LKS cells from warfarin-treated donors, one month after transplantation, P=0.03): higher percentage
reconstitution by warfarin-treated LKS cells (CD45.1+ LKS cells; higher number of transplanted LKS cells, 16 weeks post transplantation): lower than in the case of control LKS cells
huCD45+ engraftment in femora (human CD34+ cells; 6 months after transplantation): only trends towards lower
engraftment of human CD45+ leukocytes (human CD34+ cells; cotransplanted with warfarin-treated human stroma, 4 weeks, P=0.046): decreased engraftment
homing of Lin− and LKS cells to a warfarin-treated BMM (Lin− and LKS cells): not compromised
percentage of Annexin V+ apoptotic leukocytes (F4/80+ macrophages; untreated Lin− cells on warfarin-treated sorted F4/80+ macrophages, P=0.034): increased
total periostin levels in conditioned medium from macrophages (F4/80+ macrophages; vehicle- versus warfarin-treated macrophages, coimmunoprecipitation): no significant reduction
